{"source": "patent US4808616A", "about": "“6-substituted androsta-1,4-diene-3,17-diones” (Farmitalia Carlo Erba S.r.l., priority 1985, dated 1989)", "key": {"[1]": {"test_system": "rat ovarian aromatase", "assay": "Inhibition of rat ovarian aromatase in vivo (PMSG-treated adult female rats, oral)"}, "[2]": {"conditions": "women; cited from earlier work"}, "[3]": {"molecular_target": "T1, human placental aromatase (Homo sapiens, UniProt P11511)", "T1 construct": "isolated from the microsomal fraction of human placental tissue; from tissue; host or cells: human placenta, microsomal fraction", "T1 sequence (P11511 1-503)": "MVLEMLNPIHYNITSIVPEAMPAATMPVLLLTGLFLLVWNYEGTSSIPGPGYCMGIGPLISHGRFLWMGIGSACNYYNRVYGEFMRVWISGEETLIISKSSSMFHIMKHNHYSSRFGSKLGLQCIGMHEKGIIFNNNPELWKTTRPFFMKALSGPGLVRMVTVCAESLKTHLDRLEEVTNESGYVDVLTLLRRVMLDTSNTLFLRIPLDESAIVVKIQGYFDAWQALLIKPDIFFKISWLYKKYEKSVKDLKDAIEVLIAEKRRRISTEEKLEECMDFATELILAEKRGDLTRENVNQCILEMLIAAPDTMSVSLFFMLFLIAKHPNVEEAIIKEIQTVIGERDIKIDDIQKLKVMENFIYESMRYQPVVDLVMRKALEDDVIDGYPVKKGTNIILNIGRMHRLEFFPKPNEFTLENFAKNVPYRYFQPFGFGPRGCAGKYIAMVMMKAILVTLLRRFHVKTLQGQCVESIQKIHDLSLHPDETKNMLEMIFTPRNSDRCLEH", "assay": "Inhibition of human placental aromatase in vitro", "format": "biochemical"}, "[4]": {"conditions": "30 mg/kg p.o., rats, ovaries taken 24 hrs later"}}, "data": [{"smiles": "C=C1C[C@@H]2[C@H](CC[C@]3(C)C(=O)CC[C@@H]23)[C@@]2(C)CCC(=O)C=C12", "note": "[6-methylenandrost-4-ene-3,17-dione, reference compound]", "values": [{"measurement": "% Aromatase inhibition at 30 mg/kg p.o. (result in words)", "setting": "[1]; [4]", "result": "inactive"}]}, {"smiles": "C[C@]12CCC(=O)C(O)=C1CC[C@@H]1[C@@H]2CC[C@]2(C)C(=O)CC[C@@H]12", "note": "[4-hydroxy-androst-4-ene-3,17-dione]", "values": [{"measurement": "% Aromatase inhibition at 30 mg/kg p.o. (result in words)", "setting": "[1]; [4]", "result": "inactive"}, {"measurement": "effectiveness in vivo by oral route (in words)", "setting": "[1]; administered in vivo by oral route", "result": "ineffective"}, {"measurement": "conjugation after oral administration", "setting": "[2]", "result": "extensively conjugated after oral administration"}]}, {"smiles": "C[C@]12C=CC(=O)C=C1CC[C@@H]1[C@@H]2CC[C@]2(C)OC(=O)CC[C@@H]12", "note": "[Δ^1 -testololactone, reference compound]", "values": [{"measurement": "% Aromatase inhibition at 30 mg/kg p.o. (result in words)", "setting": "[1]; [4]", "result": "inactive"}, {"measurement": "Relative potency", "setting": "[3]", "result": 0.005}]}, {"smiles": "C[C@]12C=CC(=O)C=C1CC[C@@H]1[C@@H]2CC[C@]2(C)C(=O)CC[C@@H]12", "note": "[androsta-1,4-diene-3,17-dione]", "values": [{"measurement": "% Aromatase inhibition at 30 mg/kg p.o.", "setting": "[1]; [4]", "result": 37, "unit": "%"}]}]}
